Laboratory results taken from patent US5733931A, “Cyclohexanediurea derivative and process for its production” (Nissin Food Products Co., Ltd., priority 1993, dated 1998).

Key:
[1] = molecular target: ACAT (Acyl-CoA: cholesterol acyltransferase) enzyme of rabbit liver microsome; assay: Inhibitory effect on ACAT enzyme (No.1), rabbit liver microsome; type: biochemical; details: Table 9
Procedure: 1) Inhibitory effect on ACAT (Acyl-CoA: cholesterol acyltransferase) enzyme (No.1)
Compounds of the invention were tested for their inhibitory effects on ACAT enzyme of rabbit liver microsome by the method of J. G. Heider (J. of Lipid Res., vol. 24, 1127-1134, 1983). More specifically, the test was done by measuring the amount of labelled cholesterol oleate ester produced from oleic acid CoA (coenzyme A) labelled by radiation.

[2] = test system: serum cholesterol; assay: Serum cholesterol lowering effect in rat having high cholesterol [3-1]; type: in vivo, SD-type (Sprague-Dawley) male rat; details: oral, once a day for 5 days, dissolved in saline, Table 12
Procedure: 3) Cholesterol Lowering Effect
[3-1] Using a rat having high cholesterol, compounds of the invention were tested for their serum cholesterol lowering effects by the following method. A 6-week-old SD-type (Sprague-Dawley) male rat was fed with food containing 1% of cholesterol, 0.5% of cholic acid and 5% of olive oil for 2 days and then orally administered the food and a compound of the invention as dissolved in saline once a day for 5 days starting on day 3. Four hours after the final administration, a blood sample was taken. The total cholesterol in the serum of the test group was measured and compared with that of the control group.

[3] = test system: ACAT enzyme of human HepG2 cells; assay: ACAT enzyme activity of human HepG2 cells (microsome fractions); type: biochemical; details: Table 11, read-out: IC50, inhibitory effect on ACAT enzyme activity, human HepG2
Procedure: (§1) ACAT enzyme activities of the microsomes were determined by the method of J. G. Heider (J. Lipid Res., 24, 1127-1134, 1983). A test sample dissolved in 1% dimethylsulfoxide was added to a microsome fraction (100 μg), a phosphoric acid buffer (0.154M) having pH 7.4, 1-^14 C-oleoyl CoA (36 μM), dithiosleitol (2 mM) and bovine blood serum albumin (36 μg/ml). The reaction mixture adjusted to a final capacity of 0.5 ml was incubated at 37° C. for 60 minutes. A mixture (6 ml) of chloroform and methanol (2:1) was added and the reaction was stopped. Cholesterol oleate was extracted with chloroform and separated by thin-layer chromatography. ACAT enzyme activities of the microsome fractions were determined by radiation measurement.
(§2) [2-2] ACAT enzyme activities of human HepG2 and CaCo2 cells
(§3) Human HepG2 and CaCo2 cells purchased from ATCC (AMERICAN TYPE CULTURE COLLECTION) were used in this test.
(§4) Using RPMI 1640 medium for HepG2 and DMEM medium for CaCo2, HepG2 and CaCo2 cells were cultured with 40 ml of each medium containing 10% bovine blood serum, 50 I.U. of penicillin and 50 μg/ml of streptomycin in a 5% CO2 incubator at 37° C. The cells were then monolayer-culturedwith 80 ml of each medium containing […] of cholesterol and 5 μg/ml of 25-0H cholesterol in a 175 cm flask for 5 hours. The homogenizes of these cells were subjected to centrifugation at 105,000 g to collect microsome fractions. ACAT enzyme activities of the microsome fractions were determined by the above-mentioned method.

[4] = molecular target: ACAT enzyme of rabbit liver microsomes; assay: Inhibitory effect on ACAT enzyme (No.2), rabbit liver microsomes; type: biochemical; details: pH 7.4, 37° C., 60 minutes, Table 10
Procedure: (§5) 2) Inhibitory effect on ACAT (Acyl-CoA: cholesterol acyltransferase) enzyme (No.2)
(§6) [2-1] ACAT enzyme activities of rabbit liver and small intestine mucosa microsomes
(§7) A white male rabbit was fed with a […] cholesterol-containing food for four weeks and bleeding-slaughtered to extract its liver and small intestine. Microsomes of the liver and small intestine mucosa were prepared by the method of C. Marco et al. (Biochim. Biophys. Acta, 617, 458-471, 1980).
as §1

[5] = test system: serum cholesterol; assay: Serum cholesterol lowering effect in rat having high cholesterol [3-2]; type: in vivo, SD-type (Sprague-Dawley) male rat; details: oral, once a day for the last 5 days, Tween 80 and saline suspension, Table 13
Procedure: [3-2] Using a rat having high cholesterol, compounds of the invention were tested for their serum cholesterol lowering effects by the following method. A 6-week-old SD-type (Sprague-Dawley) male rat was fed with food containing 1% of cholesterol, 0.5% of cholic acid and 5% of olive oil for 7 days. For the last 5 days, a test sample suspended in some drops of Tween 80 and saline was orally administered once a day. Four hours after the final administration, a blood sample was taken from celiac aorta of the rat under etherization. The total cholesterol in the serum of the test group was measured by the oxygen method and compared with that of the control group.

[6] = molecular target: T1, ACAT enzyme of rabbit small intestine mucosa microsomes (Oryctolagus cuniculus, UniProt G1SFD9); assay: Inhibitory effect on ACAT enzyme (No.2), rabbit small intestine mucosa microsomes; type: biochemical; details: pH 7.4, 37° C., 60 minutes, Table 10
T1 construct: Microsomes of the liver and small intestine mucosa were prepared; from tissue; host or cells: small intestine mucosa microsomes of a cholesterol-fed white male rabbit
T1 sequence (G1SFD9 1-524): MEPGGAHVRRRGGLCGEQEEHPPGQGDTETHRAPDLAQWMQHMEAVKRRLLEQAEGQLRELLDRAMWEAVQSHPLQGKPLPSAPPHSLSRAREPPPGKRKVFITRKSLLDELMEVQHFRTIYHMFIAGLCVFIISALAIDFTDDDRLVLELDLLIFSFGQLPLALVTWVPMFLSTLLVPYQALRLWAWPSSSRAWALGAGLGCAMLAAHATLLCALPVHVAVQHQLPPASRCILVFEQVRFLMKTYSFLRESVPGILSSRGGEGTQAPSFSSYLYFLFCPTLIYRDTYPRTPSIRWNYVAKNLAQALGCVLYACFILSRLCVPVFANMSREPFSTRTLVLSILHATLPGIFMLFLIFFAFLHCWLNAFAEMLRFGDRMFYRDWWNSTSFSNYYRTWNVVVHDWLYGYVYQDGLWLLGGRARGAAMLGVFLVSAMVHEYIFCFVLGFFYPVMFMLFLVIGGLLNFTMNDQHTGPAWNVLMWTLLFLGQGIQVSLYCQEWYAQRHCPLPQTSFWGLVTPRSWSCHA
Procedure: as §5, §6, §7, §1

[7] = test system: ACAT enzyme of human CaCo2 cells; assay: ACAT enzyme activity of human CaCo2 cells (microsome fractions); type: biochemical; details: Table 11, read-out: IC50, inhibitory effect on ACAT enzyme activity, human CaCo2
Procedure: as §1, §2, §3, §4

| SMILES | IC50 [1] [nM] | IC50 [3] [nM] | IC50 [4] [nM] | IC50 [6] [nM] | IC50 [7] [nM] | Cholesterol lowering effect, % (serum total cholesterol vs control group) ([2]; 3 mg/kg) [%] | Cholesterol lowering effect, % (serum total cholesterol vs control group) ([2]; 10 mg/kg) [%] | Cholesterol lowering effect, % (serum total cholesterol vs control group) ([5]; 1 mg/kg) [%] | Cholesterol lowering effect, % (serum total cholesterol vs control group) ([5]; 3 mg/kg) [%] |
| --- | --- | --- | --- | --- | --- | --- | --- | --- | --- |
| CN(C)c1ccc(NC(=O)N(C[C@H]2CCC[C@H](CN(C(=O)Nc3ccc(N(C)C)cc3)C3CCCCCC3)C2)C2CCCCCC2)cc1 (relative stereo) [Example 61, Trans-1,3-bis[[1-cycloheptyl-3-(4-dimethylaminophenyl)ureido]methyl]cyclohexane] | 36 |  |  |  |  | 48 | 82 |  |  |
| CN(C)c1ccc(NC(=O)N(CC(C)(C)C)C[C@H]2CC[C@H](CN(CC(C)(C)C)C(=O)Nc3ccc(N(C)C)cc3)CC2)cc1 [Example 7, Trans-1,4-bis[[3-(4-dimethylaminophenyl)-1-neopentylureido]methyl]cyclohexane] | 100 |  |  |  |  | 105 | 103 |  |  |
| CN(C)c1ccc(NC(=O)N(C[C@H]2CC[C@H](CN(C(=O)Nc3ccc(N(C)C)cc3)C3CCCC3)CC2)C2CCCC2)cc1 [Example 11, Trans-1,4-bis[[1-cyclopentyl-3-(4-dimethylaminophenyl)ureido]methyl]cyclohexane] | 47 |  |  |  |  | 108 | 101 |  |  |
| CN(C)c1ccc(NC(=O)N(C[C@H]2CC[C@H](CN(C(=O)Nc3ccc(N(C)C)cc3)C3CCCCC3)CC2)C2CCCCC2)cc1 [Example 12, Trans-1,4-bis[[1-cyclohexyl-3-(4-dimethylaminophenyl)ureido]methyl]cyclohexane] |  | 1.1 | 36 | 24 | 0.74 |  |  | 96.2 | 92.6 |
| O=C(Nc1ccc(N2CCCCC2)cc1)N(C[C@H]1CC[C@H](CN(C(=O)Nc2ccc(N3CCCCC3)cc2)C2CCCCC2)CC1)C1CCCCC1 [Example 13, Trans-1,4-bis[[1-cyclohexyl-3-(4-piperidinophenyl)ureido]methyl]cyclohexane] |  | 0.86 | 35 | 130 | 1.1 |  |  | 76.8 | 96.2 |
| O=C(Nc1ccc(N2CCOCC2)cc1)N(C[C@H]1CC[C@H](CN(C(=O)Nc2ccc(N3CCOCC3)cc2)C2CCCCC2)CC1)C1CCCCC1 [Example 14-4, Trans-1,4-bis[[1-cyclohexyl-3-(4-morpholinophenyl)ureido]methyl]cyclohexane] |  |  |  |  |  |  |  | 79.9 | 98.8 |
| CN(C)c1ccc(NC(=O)N(C[C@H]2CC[C@H](CN(C(=O)Nc3ccc(N(C)C)cc3)C3CCCCCC3)CC2)C2CCCCCC2)cc1 [Example 15, Trans-1,4-bis[[1-cycloheptyl-3-(4-dimethylaminophenyl)ureido]methyl]cyclohexane] | 38 |  |  |  |  | 93 | 99 |  |  |
| CN(C)c1ccc(NC(=O)N(C[C@H]2CC[C@@H](CN(C(=O)Nc3ccc(N(C)C)cc3)C3CCCCC3)CC2)C2CCCCC2)cc1 [Example 42, Cis-1,4-bis[[1-cyclohexyl-3-(4-dimethylaminophenyl)ureido]methyl]cyclohexane] | 60 |  |  |  |  | 110 | 102 |  |  |
| CN(C)c1ccc(NC(=O)N(C[C@H]2CC[C@@H](CN(C(=O)Nc3ccc(N(C)C)cc3)C3CCCCCC3)CC2)C2CCCCCC2)cc1 [Example 43, Cis-1,4-bis[[1-cycloheptyl-3-(4-dimethylaminophenyl)ureido]methyl]cyclohexane] | 50 |  |  |  |  | 88 | 107 |  |  |
| CN(C)c1ccc(NC(=O)N(C[C@@H]2CCC[C@H](CN(C(=O)Nc3ccc(N(C)C)cc3)C3CCCCCC3)C2)C2CCCCCC2)cc1 [Example 83, Cis-1,3-bis[[1-cycloheptyl-3-(4-dimethylaminophenyl)ureido]methyl]cyclohexane] | 46 |  |  |  |  | 43 | 91 |  |  |
| CN(C)c1ccc(NC(=O)N(Cc2cccc(CN(C(=O)Nc3ccc(N(C)C)cc3)C3CCCCCC3)c2)C2CCCCCC2)cc1 [YM-17E, reference compound] | 23 | 9.6 | 23 |  | 14 | 38 | 91 |  | 38.0 |

Now from value to compound, other results behind:

| IC50 [1] [nM] | IC50 [3] [nM] | IC50 [4] [nM] | IC50 [6] [nM] | IC50 [7] [nM] | SMILES | Cholesterol lowering effect, % (serum total cholesterol vs control group) ([2]; 3 mg/kg) [%] | Cholesterol lowering effect, % (serum total cholesterol vs control group) ([2]; 10 mg/kg) [%] | Cholesterol lowering effect, % (serum total cholesterol vs control group) ([5]; 1 mg/kg) [%] | Cholesterol lowering effect, % (serum total cholesterol vs control group) ([5]; 3 mg/kg) [%] |
| --- | --- | --- | --- | --- | --- | --- | --- | --- | --- |
|  | 1.5 | 78 | 29 | 1.5 | CN(C)c1ccc(NC(=O)N(C[C@H]2CC[C@H](CN(C(=O)Nc3ccc(N(C)C)cc3)C3CCCCC3)CC2)C2CCCCC2)cc1 [Example 12-1, Trans-1,4-bis[[1-cyclohexyl-3-(4-dimethylaminophenyl)ureido]methyl]cyclohexane] |  |  | 100.4 | 108.3 |
|  | 0.4 | 180 | 140 | 0.8 | O=C(Nc1ccc(N2CCCC2)cc1)N(C[C@H]1CC[C@H](CN(C(=O)Nc2ccc(N3CCCC3)cc2)C2CCCCC2)CC1)C1CCCCC1 [Example 14-1, Trans-1,4-bis[[1-cyclohexyl-3-(4-pyrrolidinophenyl)ureido]methyl]cyclohexan] |  |  | 80.9 | 96.2 |
|  | 0.27 | 62 | 52 | 1.6 | O=C(Nc1ccc(N2CCCCCC2)cc1)N(C[C@H]1CC[C@H](CN(C(=O)Nc2ccc(N3CCCCCC3)cc2)C2CCCCC2)CC1)C1CCCCC1 [Example 14-2, Trans-1,4-bis[[1-cyclohexyl-3-(4-homopiperidinophenyl)ureido]methyl]cyclohexane] |  |  |  |  |
